For the assay, the target named is T1, AsPC-1 HiBiT-KRASG12D (Homo sapiens, UniProt P01116, G12D).
T1 construct: insert the HiBiT tag onto the N-terminus of one or more of the endogenous KRAS alleles; endogenous in cells; host or cells: AsPC-1 (ATCC CRL-1682), CRISPR-Cas9 knock-in clone, one tagged allele
The assay can be described thus: HiBiT degradation assay (G12D), AsPC-1 HiBiT-KRASG12D cells. The class given is cell-based. The conditions noted are these: 24 hours treatment; for Dmax: ASPC1, AsPC-1 HiBiT-KRASG12D cells, maximum degradation observed; for DC50: AsPC-1 HiBiT-KRASG12D cells, HiBiT luminescence. In a few lines:
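In this degradation format, an engineered AsPC-1 clone with HiBiT fused to the KRAS N-terminus is exposed to compounds for 24 hours, after which remaining tagged protein is quantified by lytic HiBiT luminescence.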
For orientation: The HiBiT peptide binds its large partner to form an active luciferase.

Molecules are shown by their SMILES.

T1 sequence (P01116 1-188 isoform P01116-2 G12D): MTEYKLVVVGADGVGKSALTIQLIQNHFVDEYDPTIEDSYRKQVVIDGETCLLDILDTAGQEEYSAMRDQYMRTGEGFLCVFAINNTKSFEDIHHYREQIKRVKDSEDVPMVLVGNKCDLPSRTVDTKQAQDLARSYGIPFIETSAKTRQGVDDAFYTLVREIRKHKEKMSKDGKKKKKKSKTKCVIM

The compound `CCc1cccc2cc(O)cc(-c3ncc4c(N5CC6CCC(C5)N6)nc(OC[C@]56CCCN5[C@H](COC(=O)N5CCN(c7cc([C@@H](C(=O)N8C[C@H](O)C[C@H]8C(=O)N[C@@H](C)c8ccc(-c9scnc9C)cc8)C(C)C)on7)C[C@H]5C)CC6)nc4c3F)c12` [Compound 125, [(3S,7aR)-7a-{[(4-{3,8-diazabicyclo[3.2.1]octan-3-yl}-7-(8-ethyl-3-hydroxynaphthalen-1-yl)-8-fluoropyrido[4,3-d]pyrimidin-2-yl)oxy]methyl}-hexahydro-1H-pyrrolizin-3-yl]methyl (2R)-4-{5-[(2S)-1-[(2S,4R)-4-hydroxy-2-{[(1S)-1-[4-(4-methyl-1,3-thiazol-5-yl)phenyl]ethyl]carbamoyl}pyrrolidin-1-yl]-3-methyl-1-oxobutan-2-yl]-1,2-oxazol-3-yl}-2-methylpiperazine-1-carboxylate] showed a Dmax of 20 to 60% and a DC50 of 600 to 1000 nM.
`CCc1cccc2cc(O)cc(-c3ncc4c(N5CC6CCC(C5)N6)nc(OC[C@@]56CCCN5[C@H](COC(=O)N5CC(Oc7cc([C@H](C(=O)N8C[C@H](O)C[C@H]8C(=O)N[C@@H](C)c8ccc(-c9scnc9C)cc8)C(C)C)on7)C5)CC6)nc4c3F)c12` [Compound 126, [(3S,7aS)-7a-{[(4-{3,8-diazabicyclo[3.2.1]octan-3-yl}-7-(8-ethyl-3-hydroxynaphthalen-1-yl)-8-fluoropyrido[4,3-d]pyrimidin-2-yl)oxy]methyl}-hexahydro-1H-pyrrolizin-3-yl]methyl 3-({5-[(2R)-1-[(2S,4R)-4-hydroxy-2-{[(1S)-1-[4-(4-methyl-1,3-thiazol-5-yl)phenyl]ethyl]carbamoyl}pyrrolidin-1-yl]-3-methyl-1-oxobutan-2-yl]-1,2-oxazol-3-yl}oxy)azetidine-1-carboxylate]: the Dmax fell in the range of 80 to 100% and the DC50 was < 600 nM.
For the compound `CCc1cccc2cc(O)cc(-c3ncc4c(N5CC6CCC(C5)N6)nc(OC[C@@]56CCCN5[C@H](COC(=O)N5CC(Oc7cc([C@@H](C(=O)N8C[C@H](O)C[C@H]8C(=O)N[C@@H](C)c8ccc(-c9scnc9C)cc8)C(C)C)on7)C5)CC6)nc4c3F)c12` [Compound 127, [(3S,7aS)-7a-{[(4-{3,8-diazabicyclo[3.2.1]octan-3-yl}-7-(8-ethyl-3-hydroxynaphthalen-1-yl)-8-fluoropyrido[4,3-d]pyrimidin-2-yl)oxy]methyl}-hexahydro-1H-pyrrolizin-3-yl]methyl 3-({5-[(2S)-1-[(2S,4R)-4-hydroxy-2-{[(1S)-1-[4-(4-methyl-1,3-thiazol-5-yl)phenyl]ethyl]carbamoyl}pyrrolidin-1-yl]-3-methyl-1-oxobutan-2-yl]-1,2-oxazol-3-yl}oxy)azetidine-1-carboxylate], the Dmax is < 20% and the DC50 fell in the range of 600 to 1000 nM.
As to `CCc1cccc2cc(O)cc(-c3ncc4c(N5CC6CCC(C5)N6)nc(OC[C@]56CCCN5[C@H](COC(=O)N5CC(Oc7cc([C@H](C(=O)N8C[C@H](O)C[C@H]8C(=O)N[C@@H](C)c8ccc(-c9scnc9C)cc8)C(C)C)on7)C5)CC6)nc4c3F)c12` [Compound 128, [(3S,7aR)-7a-{[(4-{3,8-diazabicyclo[3.2.1]octan-3-yl}-7-(8-ethyl-3-hydroxynaphthalen-1-yl)-8-fluoropyrido[4,3-d]pyrimidin-2-yl)oxy]methyl}-hexahydro-1H-pyrrolizin-3-yl]methyl 3-({5-[(2R)-1-[(2S,4R)-4-hydroxy-2-{[(1S)-1-[4-(4-methyl-1,3-thiazol-5-yl)phenyl]ethyl]carbamoyl}pyrrolidin-1-yl]-3-methyl-1-oxobutan-2-yl]-1,2-oxazol-3-yl}oxy)azetidine-1-carboxylate], the Dmax was 80 to 100% and the DC50 was < 600 nM.

The Dmax is the largest share of the target that was removed. Read a low Dmax as shallow degradation. By DC50 is commonly meant the midpoint of the concentration-degradation curve. Low values mean a more potent degrader, high ones a less potent degrader.

Source of the values: patent US20250206732A1, “COMPOUNDS AND METHODS FOR THE TARGETED DEGRADATION OF KRAS” (Arvinas Operations, Inc., priority 2022, published 2025).
